Data published in ChEMBL document CHEMBL1201862, “PubChem BioAssay data set” (2004).
Activity calls are given as the source filed them.

Tests used:
[1] = target: T1, Alkaline phosphatase, tissue-nonspecific isozyme (Homo sapiens, UniProt P05186); test: potency against alkaline phosphatase TNAP – biochemical, luminescent, dose response, SAR follow-up (AID 1056)
T1 sequence (P05186 whole entry): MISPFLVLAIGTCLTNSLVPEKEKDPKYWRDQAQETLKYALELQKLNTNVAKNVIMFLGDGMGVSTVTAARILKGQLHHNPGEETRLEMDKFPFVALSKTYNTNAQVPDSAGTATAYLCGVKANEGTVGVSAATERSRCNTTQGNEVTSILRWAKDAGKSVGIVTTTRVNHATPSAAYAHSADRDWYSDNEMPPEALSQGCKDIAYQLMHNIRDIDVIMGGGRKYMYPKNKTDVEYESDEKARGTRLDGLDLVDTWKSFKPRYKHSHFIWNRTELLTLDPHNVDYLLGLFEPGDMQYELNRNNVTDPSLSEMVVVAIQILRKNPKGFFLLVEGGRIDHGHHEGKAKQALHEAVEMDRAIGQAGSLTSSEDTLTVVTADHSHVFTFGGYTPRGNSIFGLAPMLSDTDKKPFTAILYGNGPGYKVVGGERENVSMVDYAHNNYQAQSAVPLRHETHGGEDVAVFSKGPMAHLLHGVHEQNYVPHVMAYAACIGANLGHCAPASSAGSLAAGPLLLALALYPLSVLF

[2] = target: T2, RNA-editing ligase 1, mitochondrial (Trypanosoma brucei brucei, UniProt P86926); test: inhibition of trypanosome RNA editing ligase – biochemical, fluorescence, Trypanosoma brucei, dose response (AID 1117295); type: functional
T2 sequence (P86926 whole entry): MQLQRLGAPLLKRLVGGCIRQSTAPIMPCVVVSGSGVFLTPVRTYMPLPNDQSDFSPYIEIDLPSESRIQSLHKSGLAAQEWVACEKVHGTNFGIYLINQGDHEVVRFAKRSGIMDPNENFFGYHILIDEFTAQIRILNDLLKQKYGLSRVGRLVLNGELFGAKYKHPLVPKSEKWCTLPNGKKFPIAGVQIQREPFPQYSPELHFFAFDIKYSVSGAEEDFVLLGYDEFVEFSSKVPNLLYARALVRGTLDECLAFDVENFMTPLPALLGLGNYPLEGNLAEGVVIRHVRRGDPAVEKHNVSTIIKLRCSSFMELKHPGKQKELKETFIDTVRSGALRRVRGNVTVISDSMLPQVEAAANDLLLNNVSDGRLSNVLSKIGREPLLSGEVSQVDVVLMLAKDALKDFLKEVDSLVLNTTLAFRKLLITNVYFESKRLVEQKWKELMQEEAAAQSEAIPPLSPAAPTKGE

Albumin = Albumin (Bos taurus, UniProt P02769); test: Counterscreen for inhibitors of T-cell receptor (TCR)-CD3 interaction: Fluorescence-based biochemical high throughput dose response assay to identify inhibitors of T-cell receptor (TCR)-CD3 interaction using a TAMRA-labeled BSA probe.; type: functional
Albumin, sequence (P02769 whole entry): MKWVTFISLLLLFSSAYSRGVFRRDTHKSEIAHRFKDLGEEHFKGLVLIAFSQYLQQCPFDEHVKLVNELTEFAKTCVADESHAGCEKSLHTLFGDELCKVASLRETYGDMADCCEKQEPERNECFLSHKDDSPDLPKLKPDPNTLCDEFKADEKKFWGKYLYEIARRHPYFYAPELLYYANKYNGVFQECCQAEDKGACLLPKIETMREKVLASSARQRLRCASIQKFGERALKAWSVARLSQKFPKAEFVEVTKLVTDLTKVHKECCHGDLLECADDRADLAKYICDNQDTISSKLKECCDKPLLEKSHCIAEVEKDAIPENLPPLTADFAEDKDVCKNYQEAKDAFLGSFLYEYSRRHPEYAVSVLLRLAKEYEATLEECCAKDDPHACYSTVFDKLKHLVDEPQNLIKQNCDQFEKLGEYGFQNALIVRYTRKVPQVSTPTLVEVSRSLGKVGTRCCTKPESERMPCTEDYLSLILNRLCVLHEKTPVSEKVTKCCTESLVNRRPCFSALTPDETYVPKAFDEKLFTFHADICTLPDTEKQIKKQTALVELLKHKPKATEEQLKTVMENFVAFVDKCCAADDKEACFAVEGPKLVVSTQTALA

[3] = Counterscreen for […] of the human trace amine associated receptor 1 (TAAR1): Fluorescence-based cell-based high throughput dose response assay to identify nonselective Ga16 agonists.; type: functional
[4] = Counterscreen for antagonists of the human trace amine associated receptor 1 (hTAAR1): Fluorescence-based cell-based high throughput dose response assay to identify nonselective Ga16 antagonists.; type: functional
[5] = target: T3, Trace amine-associated receptor 1 (Homo sapiens, UniProt Q96RJ0); test: Counterscreen for antagonists of the human trace amine associated receptor 1 (hTAAR1): Fluorescence-based cell-based high throughput dose response assay to identify TAAR1 Agonists.; type: functional
T3 sequence (Q96RJ0 whole entry): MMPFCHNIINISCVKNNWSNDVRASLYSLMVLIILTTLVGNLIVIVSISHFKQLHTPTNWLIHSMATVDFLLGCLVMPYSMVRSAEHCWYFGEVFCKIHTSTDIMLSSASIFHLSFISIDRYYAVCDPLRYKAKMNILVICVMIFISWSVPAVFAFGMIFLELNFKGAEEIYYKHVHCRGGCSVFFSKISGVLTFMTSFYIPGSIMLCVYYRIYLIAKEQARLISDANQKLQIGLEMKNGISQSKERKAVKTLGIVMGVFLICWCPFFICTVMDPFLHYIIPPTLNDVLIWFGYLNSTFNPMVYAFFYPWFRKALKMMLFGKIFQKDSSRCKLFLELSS

[6] = target: T3, Trace amine-associated receptor 1; test: Fluorescence-based cell-based high throughput dose response assay to identify antagonists of the human trace amine associated receptor 1 (TAAR1).; type: functional
[7] = activation of miR-122 Renilla sensor silencing – cell-based, Huh7 psiCHECK-miR122, Renilla luciferase, cherry-picked, dose response (AID 651956); type: functional;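 also: huh7 hepatoma cells stably carrying a psiCHECK-2 miR-122 sensor plasmid; renilla luciferase signal reporting endogenous miR-122 activity after 48 h compound exposure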
[8] = bead-based luminescence quenchers, dual-tagged ARNT – biochemical, AlphaScreen, cherry-pick, artefact control for ARNT-TACC3 interaction inhibitor project, dose response (AID 651705); type: functional;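 also: AlphaScreen bead proximity signal that flags compounds interfering with the detection technology; potency reflects signal decrease which marks the compound as an assay artifact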
[9] = target: T4, DNA repair protein RAD52 homolog (Homo sapiens, UniProt P43351); type: functional, biochemical
T4 sequence (P43351 whole entry): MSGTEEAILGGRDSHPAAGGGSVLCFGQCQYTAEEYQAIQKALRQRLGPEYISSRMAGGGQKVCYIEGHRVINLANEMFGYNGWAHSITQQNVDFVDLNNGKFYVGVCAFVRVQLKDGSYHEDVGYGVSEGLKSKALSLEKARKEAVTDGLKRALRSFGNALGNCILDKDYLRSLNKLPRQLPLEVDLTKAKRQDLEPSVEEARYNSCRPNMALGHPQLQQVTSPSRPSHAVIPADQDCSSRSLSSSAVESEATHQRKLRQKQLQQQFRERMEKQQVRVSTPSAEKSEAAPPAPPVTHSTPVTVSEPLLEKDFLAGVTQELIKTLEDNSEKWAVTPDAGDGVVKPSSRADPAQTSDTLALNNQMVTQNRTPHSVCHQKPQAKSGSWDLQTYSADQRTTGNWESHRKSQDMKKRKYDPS

[10] = target: DNA repair and recombination protein RAD54-like (Homo sapiens, UniProt Q92698); test: RAD54 Holliday junction migration blockers – biochemical, fluorescence, cherry-picked samples, dose series, confirmation (AID 651657); type: functional
DNA repair and recombination protein RAD54-like, sequence (Q92698 whole entry): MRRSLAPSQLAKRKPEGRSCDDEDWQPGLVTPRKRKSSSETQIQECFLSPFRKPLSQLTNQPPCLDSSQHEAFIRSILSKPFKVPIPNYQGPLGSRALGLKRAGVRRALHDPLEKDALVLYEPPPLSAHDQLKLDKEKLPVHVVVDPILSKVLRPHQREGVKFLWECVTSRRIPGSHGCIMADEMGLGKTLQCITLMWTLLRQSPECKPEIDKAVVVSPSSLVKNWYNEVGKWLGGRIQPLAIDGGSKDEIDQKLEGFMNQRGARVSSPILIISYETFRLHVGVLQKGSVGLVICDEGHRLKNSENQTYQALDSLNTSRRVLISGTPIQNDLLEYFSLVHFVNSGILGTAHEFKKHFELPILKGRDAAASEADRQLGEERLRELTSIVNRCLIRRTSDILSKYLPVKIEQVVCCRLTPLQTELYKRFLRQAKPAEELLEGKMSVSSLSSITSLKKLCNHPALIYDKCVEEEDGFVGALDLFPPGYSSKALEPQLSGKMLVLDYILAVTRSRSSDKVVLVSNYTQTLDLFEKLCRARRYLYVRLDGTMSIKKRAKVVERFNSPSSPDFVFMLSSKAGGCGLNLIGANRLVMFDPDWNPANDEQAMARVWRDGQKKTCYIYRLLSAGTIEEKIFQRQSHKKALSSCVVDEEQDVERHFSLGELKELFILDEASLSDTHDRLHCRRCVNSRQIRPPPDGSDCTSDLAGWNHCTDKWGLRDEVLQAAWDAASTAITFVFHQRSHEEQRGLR

[11] = acridine orange displacement from DNA – biochemical, fluorescence polarization, cherry-pick, artefact control for RAD54 inhibitor project, dose response (AID 651673); type: functional
[12] = microbe, parasite or virus in culture; type: functional; conditions: Mycobacterium tuberculosis
[13] = target: T5, Scavenger receptor class B member 1 (Mus musculus, UniProt Q61009); test: blockers of DiI-HDL lipid transfer via SR-BI – cell-based, ldlA[mSR-BI] CHO, DiI fluorescence, dry powder, set 10, dose response (AID 624029); type: functional
T5 sequence (Q61009 whole entry): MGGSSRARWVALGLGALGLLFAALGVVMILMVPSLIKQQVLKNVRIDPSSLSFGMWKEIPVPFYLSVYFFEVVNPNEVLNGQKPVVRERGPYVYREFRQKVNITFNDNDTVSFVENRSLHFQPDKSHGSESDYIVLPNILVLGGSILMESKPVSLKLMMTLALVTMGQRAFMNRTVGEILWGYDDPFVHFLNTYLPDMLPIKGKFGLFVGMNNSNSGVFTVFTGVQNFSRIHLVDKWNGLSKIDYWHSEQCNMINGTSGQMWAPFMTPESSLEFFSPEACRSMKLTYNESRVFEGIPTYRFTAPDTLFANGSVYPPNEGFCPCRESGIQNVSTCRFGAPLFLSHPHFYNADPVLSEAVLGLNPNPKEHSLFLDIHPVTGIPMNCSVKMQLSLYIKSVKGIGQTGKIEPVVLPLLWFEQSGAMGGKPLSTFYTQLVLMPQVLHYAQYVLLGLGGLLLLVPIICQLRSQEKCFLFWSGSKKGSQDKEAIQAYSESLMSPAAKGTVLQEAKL

[14] = target: T5, Scavenger receptor class B member 1; test: mouse SR-BI DiI-HDL transfer blockers – ldlA[mSR-BI] CHO cells, fluorescence plate reader, dry powder, set 9, dose response (AID 623880); type: functional, cell-based
[15] = target: T6, Protein disulfide-isomerase (Homo sapiens, UniProt P07237); test: inhibition of PDI-driven insulin aggregation – biochemical, turbidity, absorbance, cherry-picked samples, dose response (AID 602350); type: functional
T6 sequence (P07237 whole entry): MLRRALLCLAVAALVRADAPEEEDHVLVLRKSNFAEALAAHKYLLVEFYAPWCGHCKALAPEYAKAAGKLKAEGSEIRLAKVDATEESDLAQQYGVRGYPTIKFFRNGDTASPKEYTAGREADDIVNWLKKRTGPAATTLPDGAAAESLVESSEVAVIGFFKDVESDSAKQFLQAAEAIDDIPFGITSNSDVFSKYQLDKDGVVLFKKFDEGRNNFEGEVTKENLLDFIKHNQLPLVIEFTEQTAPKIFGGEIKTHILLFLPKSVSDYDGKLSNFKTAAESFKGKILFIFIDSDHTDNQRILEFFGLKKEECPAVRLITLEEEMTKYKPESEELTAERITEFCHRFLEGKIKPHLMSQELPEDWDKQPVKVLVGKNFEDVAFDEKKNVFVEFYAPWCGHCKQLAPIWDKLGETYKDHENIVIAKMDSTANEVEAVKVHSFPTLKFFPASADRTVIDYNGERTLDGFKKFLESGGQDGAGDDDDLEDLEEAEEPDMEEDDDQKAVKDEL

[16] = target: T6, Protein disulfide-isomerase; test: inhibition of PDI-mediated insulin reduction – biochemical, turbidity, absorbance, cherry-picked samples, set 2, dose response (AID 624274); type: functional

Cc1nc2ccccc2n1CC(=O)c1ccc(O)c(O)c1
IC50 [1]: 20.2 µM (active) | IC50 [2]: > 96.6 µM (inactive) | IC50 (Albumin): > 94 µM (inactive)

COC(=O)c1oc2c(c1C)C1(CCC2)SCCS1
EC50 [3]: > 29.9 µM (inactive) | IC50 [4]: > 29.9 µM (inactive) | EC50 [5]: > 29.9 µM (inactive) | IC50 [6]: 1.09 µM (active)

Cc1cc(C(C)(C)C)cc(S(=O)(=O)NCCc2ccncc2)c1C
AC50 [7]: 0.598 µM (active)

COCCOC(=O)c1c(N)n(Cc2ccco2)c2nc3ccccc3nc12
AC50 [8]: 130 µM (active)

CCOC(=O)c1cnc2c(ccc3ccccc32)c1NCCN(C)C
AC50 [9]: 6.71 µM (active) | AC50 [10]: 9.73 µM (active) | AC50 [11]: 55.9 µM (active)

CCOc1cc2c3c(c1)C1(C(=O)N3C(C)(C)CC2C)C(C#N)=C(N)N2C(=C1C#N)Nc1ccccc12 (configuration not stated)
CC50 [12]: > 40 µM (active) | AC50 [13]: 2.23 µM (active) | AC50 [14]: 10 µM (active)

O=C(Nc1ccccc1N1CCCC1)c1cc(Cl)ccc1Cl
AC50 [15]: < 0.009 µM (active) | AC50 [16]: 0.009 µM (active)
